The assay has as its system HBV viral load (viral production from HepAD38 cells). Nature of the assay: Activity of test compounds on viral production from HepAD38 cells (viral load by qPCR of HBV core sequence). The format is cell-based. The note with it: viral load lowering, 5 days, qPCR of supernatant, read-out: VL HepAD38 EC50 range. The essentials:
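HepAD38 cells seeded at 50,000/well in tetracycline-free medium with 2% FBS, treated 5 days at 37 °C with compounds from 10 μM top concentration. Supernatant HBV DNA quantified by TaqMan qPCR of core sequence against HBV DNA standards, relative to DMSO wells; viability by CellTiter-Glo; EC50/CC50 by four-parameter logistic fit.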
(In general: In qPCR the cycle at which signal appears reflects the starting amount.)

The mark [1] stands for this setting: Hepatitis B virus, HePAD38, 120 h.

Among the data in US12655130B2 (ASSEMBLY BIOSCIENCES, INC., priority 2020, dated 2026) are EC50 values, retold here.

Where two headings read alike, the source gives them in different places.

As usually defined, the EC50 is the concentration needed to bring the measured effect to its halfway point. Turning to `Cn1cnc(C2CC3CC(N4CCCCC4)CC3C2)c1C(=O)Nc1ccc(F)c(Cl)c1` (stereo not drawn) [Example 46, 5-[-5-(1-Piperidinyl)-1,2,3,3a,4,5,6,6a-octahydropentalen-2-yl]-N-(3-chloro-4-fluorophenyl)-3-methyl-4-imidazolecarboxamide], the EC50 under setting [1] fell in the range of 0.01 to 0.05 µM. As to `CC(CO)Oc1cc(C2(O)CC3CC(c4ncn(C)c4C(=O)Nc4ccc(F)c(Cl)c4)CC3C2)n(C)n1` (single isomer, unassigned) [Example 69, N-(3-Chloro-4-fluorophenyl)-4-(5-hydroxy-5-(3-((1-hydroxypropan-2-yl)oxy)-1-methyl-1H-pyrazol-5-yl)octahydropentalen-2-yl)-1-methyl-1H-imidazole-5-carboxamide], the EC50 fell in the range of 0.01 to 0.05 µM. Turning to `CC(C)(C)OC(=O)N1CCn2c(nc(C3CC4CC(O)CC4C3)c2C(=O)Nc2ccc(F)c(Cl)c2)C1` (stereo not drawn) [Example 84, tert-Butyl 3-((3-chloro-4-fluorophenyl)carbamoyl)-2-(5-hydroxy-octahydropentalen-2-yl)-5,6-dihydroimidazo[1,2-a]pyrazine-7(8H)-carboxylate], the EC50 under setting [1] is 0.05 to 0.5 µM. The same measure, in the same setting: the same measure for `CCOC(=O)CC1CC2CC(c3ncn(C)c3C(=O)Nc3ccc(F)c(Cl)c3)CC2C1` (stereo not drawn) [Example 16, Ethyl 2-(5-(5-((3-chloro-4-fluorophenyl)carbamoyl)-1-methyl-1H-imidazol-4-yl)octahydropentalen-2-yl)acetate]: below 0.01 µM. Regarding `Cc1cc(NC(=O)c2c(C3CC4CC(O)(c5cn(C)nc5C(F)(F)F)CC4C3)ncn2C)ccc1F` (stereo not drawn) [Example 171, N-(4-Fluoro-3-methylphenyl)-4-(5-hydroxy-5-(1-methyl-3-(trifluoromethyl)-1H-pyrazol-4-yl)octahydropentalen-2-yl)-1-methyl-1H-imidazole-5-carboxamide], the EC50 under setting [1] was below 0.01 µM.

Consider `CCn1nc(C(F)F)cc1C1(O)CC2CC(c3ncn(C)c3C(=O)Nc3ccc(F)c(Cl)c3)CC2C1` (stereo not drawn) [Example 152, N-(3-Chloro-4-fluorophenyl)-4-(5-(3-(difluoromethyl)-1-ethyl-1H-pyrazol-5-yl)-5-hydroxyoctahydropentalen-2-yl)-1-methyl-1H-imidazole-5-carboxamide], for which the EC50 under setting [1] is below 0.01 µM. On the same count and under the same terms, as for `Cn1ccnc1C1(O)CC2CC(c3ncn(C)c3C(=O)Nc3ccc(F)c(Cl)c3)CC2C1` (single isomer, unassigned) [Example 5, N-(3-Chloro-4-fluorophenyl)-4-(5-hydroxy-5-(1-methyl-1H-imidazol-2-yl)octahydropentalen-2-yl)-1-methyl-1H-imidazole-5-carboxamide], the figure is below 0.01 µM; as for `Cn1cnc(C2CC3CC(O)(Cn4ccc(O)n4)CC3C2)c1C(=O)Nc1ccc(F)c(Cl)c1` (stereo not drawn) [Example 95, N-(3-chloro-4-fluorophenyl)-4-(5-hydroxy-5-((3-hydroxy-1H-pyrazol-1-yl)methyl)octahydropentalen-2-yl)-1-methyl-1H-imidazole-5-carboxamide], 0.01 to 0.05 µM. In the case of `O=C(Nc1ccc(F)c(Cl)c1)c1c(C2CC3CC(O)CC3C2)nc2n1CCC2` (single isomer, unassigned) [Example 33, N-(3-Chloro-4-fluorophenyl)-2-(5-hydroxyoctahydropentalen-2-yl)-6,7-dihydro-5H-pyrrolo[1,2-a]imidazole-3-carboxamide], the EC50 is below 0.01 µM. With `CC(C)n1nccc1C1(O)CC2CC(c3ncn(C)c3C(=O)Nc3ccc(F)c(Cl)c3)CC2C1` (stereo not drawn) [Example 120, N-(3-chloro-4-fluorophenyl)-4-(5-hydroxy-5-(1-isopropyl-1H-pyrazol-5-yl)octahydropentalen-2-yl)-1-methyl-1H-imidazole-5-carboxamide], the EC50 under setting [1] was below 0.01 µM. Consider `CC(O)c1nn(C)cc1C1(O)CC2CC(c3ncn(C)c3C(=O)Nc3ccc(F)c(Cl)c3)CC2C1` (single isomer, unassigned) [Example 189, N-(3-Chloro-4-fluorophenyl)-4-(5-hydroxy-5-(3-(1-hydroxyethyl)-1-methyl-1H-pyrazol-4-yl)octahydropentalen-2-yl)-1-methyl-1H-imidazole-5-carboxamide], for which the EC50 was below 0.01 µM. For the compound `CNS(=O)(=O)Nc1cc(C2(O)CC3CC(c4ncn(C)c4C(=O)Nc4ccc(F)c(Cl)c4)CC3C2)n(C)n1` (stereo not drawn) [Example 201, N-(3-Chloro-4-fluorophenyl)-4-(5-hydroxy-5-(1-methyl-3-((N-methylsulfamoyl)amino)-1H-pyrazol-5-yl)octahydropentalen-2-yl)-1-methyl-1H-imidazole-5-carboxamide], the EC50 under setting [1] was below 0.01 µM. On the same count and under the same terms, as for `CC(C)Cn1nc(N)c(Cl)c1C1(O)CC2CC(c3ncn(C)c3C(=O)Nc3ccc(F)c(Cl)c3)CC2C1` (stereo not drawn) [Example 172, 4-(5-(3-Amino-4-chloro-1-isobutyl-1H-pyrazol-5-yl)-5-hydroxyoctahydropentalen-2-yl)-N-(3-Chloro-4-fluorophenyl)-1-methyl-1H-imidazole-5-carboxamide], the figure is below 0.01 µM; as for `Cn1cnc(C2CC3CC(O)(c4c(C(F)F)cnn4C)CC3C2)c1C(=O)Nc1ccc(F)c(Cl)c1` (stereo not drawn) [Example 145, N-(3-Chloro-4-fluorophenyl)-4-(5-(4-(difluoromethyl)-1-methyl-1H-pyrazol-5-yl)-5-hydroxyoctahydropentalen-2-yl)-1-methyl-1H-imidazole-5-carboxamide], below 0.01 µM.

`Cn1cc(CC2(O)CC3CC(c4ncn(C)c4C(=O)Nc4ccc(F)c(Cl)c4)CC3C2)cn1` (stereo not drawn) [Example 130, N-(3-chloro-4-fluorophenyl)-4-(5-hydroxy-5-((1-methyl-1H-pyrazol-4-yl)methyl)octahydropentalen-2-yl)-1-methyl-1H-imidazole-5-carboxamide]: the EC50 under setting [1] was below 0.01 µM.

For the compound `Cn1cnc(C2CC3CC(O)(c4cc(C(F)(F)F)n[nH]4)CC3C2)c1C(=O)Nc1ccc(F)c(Cl)c1` (stereo not drawn) [Example 179, N-(3-Chloro-4-fluorophenyl)-4-(5-hydroxy-5-(3-(trifluoromethyl)-1H-pyrazol-5-yl)octahydropentalen-2-yl)-1-methyl-1H-imidazole-5-carboxamide], the EC50 under setting [1] is below 0.01 µM.

Turning to `Cn1cnc(C2CC3CC(O)(c4c(C(N)=O)cnn4C)CC3C2)c1C(=O)Nc1ccc(F)c(Cl)c1` (stereo not drawn) [Example 126, 5-(5-(5-((3-chloro-4-fluorophenyl)carbamoyl)-1-methyl-1H-imidazol-4-yl)-2-hydroxyoctahydropentalen-2-yl)-1-methyl-1H-pyrazole-4-carboxamide], the EC50 under setting [1] was below 0.01 µM. The same measure, in the same setting: the same measure for `Cn1cc(C2(O)CC3CC(c4ncn(C)c4C(=O)Nc4ccc(F)c(Cl)c4)CC3C2)c(C(N)=O)n1` (stereo not drawn) [Example 178, 4-(5-(5-((3-Chloro-4-fluorophenyl)carbamoyl)-1-methyl-1H-imidazol-4-yl)-2-hydroxyoctahydropentalen-2-yl)-1-methyl-1H-pyrazole-3-carboxamide]: below 0.01 µM; for `Cn1cnc(C2CC3CC(O)(c4cc(Cl)nn4C)CC3C2)c1C(=O)Nc1ccc(F)c(Cl)c1` (single isomer, unassigned) [Example 73, 4-(5-(3-Chloro-1-methyl-1H-pyrazol-5-yl)-5-hydroxyoctahydropentalen-2-yl)-N-(3-chloro-4-fluorophenyl)-1-methyl-1H-imidazole-5-carboxamide]: below 0.01 µM. Same read-out and setting: the same measure for `O=C(Nc1ccc(F)c(Cl)c1)c1scnc1C1CC2CC(O)CC2C1` (stereo not drawn) [Example 39, N-(3-Chloro-4-fluorophenyl)-4-(5-hydroxyoctahydropentalen-2-yl)thiazole-5-carboxamide]: below 0.01 µM; for `CCn1nc(C(F)(F)F)cc1C1(O)CC2CC(c3ncn(C)c3C(=O)Nc3ccc(F)c(Cl)c3)CC2C1` (stereo not drawn) [Example 173, N-(3-Chloro-4-fluorophenyl)-4-(5-(1-ethyl-3-(trifluoromethyl)-1H-pyrazol-5-yl)-5-hydroxyoctahydropentalen-2-yl)-1-methyl-1H-imidazole-5-carboxamide]: below 0.01 µM; for `O=C1CC2CC(c3ncsc3C(=O)Nc3ccc(F)c(Cl)c3)CC2C1` (stereo not drawn) [Example 38, N-(3-Chloro-4-fluorophenyl)-4-(5-oxooctahydropentalen-2-yl)thiazole-5-carboxamide]: below 0.01 µM. On the same count and under the same terms, the same measure for `C[C@H](O)c1cc(C2(O)CC3CC(c4ncn(C)c4C(=O)Nc4ccc(F)c(Cl)c4)CC3C2)n(C)n1` (stereo partly drawn) [Example 78, N-(3-Chloro-4-fluorophenyl)-4-(−5-hydroxy-5-(3-((S)-1-hydroxyethyl)-1-methyl-1H-pyrazol-5-yl)octahydropentalen-2-yl)-1-methyl-1H-imidazole-5-carboxamide]: below 0.01 µM; for `Cn1cc(C2(O)CC3CC(c4ncn(C)c4C(=O)Nc4ccc(F)c(C#N)c4)CC3C2)c(C(F)(F)F)n1` (stereo not drawn) [Example 115, N-(3-Cyano-4-fluorophenyl)-4-(5-hydroxy-5-(1-methyl-3-(trifluoromethyl)-1H-pyrazol-4-yl)octahydropentalen-2-yl)-1-methyl-1H-imidazole-5-carboxamide]: below 0.01 µM. On to `Cn1cnc(C2CC3CC(O)(c4cc(C#N)nn4C)CC3C2)c1C(=O)Nc1ccc(F)c(Cl)c1` (stereo not drawn) [Example 57, N-(3-Chloro-4-fluorophenyl)-4-(5-(3-cyano-1-methyl-1H-pyrazol-5-yl)-5-hydroxyoctahydropentalen-2-yl)-1-methyl-1H-imidazole-5-carboxamide], for which the EC50 under setting [1] is below 0.01 µM. In the case of `Cn1cnc(-c2ccc(C3CCC(c4ncn(C)c4C(=O)Nc4ccc(F)c(Cl)c4)C3)cc2)c1` (stereo not drawn) [Example 15, N-(3-Chloro-4-fluorophenyl)-1-methyl-4-(3-(4-(1-methyl-1H-imidazol-4-yl)phenyl)cyclopentyl)-1H-imidazole-5-carboxamide], the EC50 is below 0.01 µM. As to `CCNc1nc(C2CC3CC(=O)CC3C2)c(C(=O)Nc2ccc(F)c(Cl)c2)n1C` (stereo not drawn) [Example 49, N-(3-chloro-4-fluorophenyl)-2-(ethylamino)-1-methyl-4-(5-oxooctahydropentalen-2-yl)-1H-imidazole-5-carboxamide], the EC50 under setting [1] fell in the range of 0.05 to 0.5 µM.
